Test results reported in patent US10537535B2, “Histone deacetylase inhibitors” (The Regents of the University of California, priority 2015, dated 2020).
pIC50: −log10 of the molar value.

What was measured:
[1] = system: H3K14 acetylation in HEK293 cells; test: Western blot of histone acetylation in HEK293 nuclear extracts: H3K14; type: cell-based, human
Description: (§1) In order to test whether diacetyl can increase acetylation of histones in vivo, human HEK293 cells were used, which offer a tractable system to prepare nuclear extracts. The cells were exposed to different doses of diacetyl for 2 or 6 hours, and monitored histone acetylation levels by Western blot analysis from nuclear extract. […] The acetylation levels of H3K14 and H4K5 were not affected (FIG. 5A).
(§2) Human embryonic kidney 293 (HEK293) cells were grown in 100 mm cell culture dishes with Dulbecco's modified Eagle's medium (DMEM) (10-013, Corning, Manassas, Va.), supplemented with 10% fetal bovine serum (FBS) (26140-079, Gibco, Carlsbad, Calif.) at 37° C. with 5% CO2. Cells that were ˜80% confluent were treated with freshly-prepared medium supplemented with diacetyl at concentrations indicated. In order to prevent diffusion of diacetyl odor from the treatment dishes to the outside environment, the cell culture dishes were put into a custom-made container (155.6×155.6×85.7 mm) with a charcoal filter top. […]
(§3) Proteins in the nuclear extracts (60 μg protein) were separated by SDS-PAGE gels (456-1043, Bio-Rad, Hercules, Calif.), transferred onto PVDF membranes (162-0174, Bio-Rad), and incubated with anti-histone antibodies: acetylated H3K9 (1/2000: ab4441, abeam, Cambridge, Mass.), acetylated H3K14 (1/5000: 06-911, EMD Millipore, Billerica, Mass.), acetylated H4K5 (1/2000: 07-327, EMD Millipore). Bound antibody was detected by horseradish peroxidase-conjugated anti-rabbit secondary antibody (1/20000: 1705046, Bio-Rad) and developed using Clarity™ Western ECL Substrate (1705060, Bio-Rad). Signals were detected and captured by ImageQuant™ LAS 4000 mini (GE healthcare, Pittsburgh, Pa.), and band intensities were quantified with ImageJ software. H3K9 acetylation intensity in individual lanes was reported relative to the normalized Mock treatment (Mock H3K9ace/Mock PCNA), and calculated using this formula: Relative H3K9ace intensity for each timepoint=(Diacetyl H3K9ace/diacetyl PCNA)/(Mock H3K9ace/Mock PCNA).

human HDAC8 = target: T1, human HDAC8 (Homo sapiens, UniProt Q9BY41); test: Fluorometric HDAC activity assay, purified human HDAC8; type: biochemical; conditions: purified human HDAC8, n=4-5
T1 construct: purchased BPS Bioscience 50068
T1 sequence (Q9BY41 1-377): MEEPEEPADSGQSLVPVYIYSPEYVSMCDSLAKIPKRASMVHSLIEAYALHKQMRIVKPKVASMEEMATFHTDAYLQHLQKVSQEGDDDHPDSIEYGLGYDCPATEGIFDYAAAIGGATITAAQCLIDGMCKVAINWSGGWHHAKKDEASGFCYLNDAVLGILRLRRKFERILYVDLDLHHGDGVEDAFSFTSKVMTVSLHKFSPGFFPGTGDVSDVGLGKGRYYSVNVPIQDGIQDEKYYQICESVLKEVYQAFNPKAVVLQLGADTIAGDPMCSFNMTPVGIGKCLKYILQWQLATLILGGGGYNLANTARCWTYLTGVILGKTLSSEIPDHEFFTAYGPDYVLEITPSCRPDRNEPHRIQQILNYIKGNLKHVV
Description: (§4) In order to directly test whether diacetyl acts as an inhibitor of HDACs, in vitro acetylation assays was performed with purified human HDACs. In this example, β-hydroxybutyrate (a naturally-occurring HDAC inhibitor secreted by the liver, targeting zinc-dependent HDACs) was used for comparison. HDAC activity of class I HDACs (HDAC1, 2, 3 and 8) was measured with the fluorometric HDAC Activity Assay kit: HDAC1 (10011563, Cayman Chemical, Ann Arbor, Mich.), HDAC2, HDAC 3 and HDAC 8 (50062, 50073 and 50068, BPS Bioscience, San Diego, Calif.), according to the manufacturer's instructions.

[2] = system: H4K5 acetylation in HEK293 cells; test: Western blot of histone acetylation in HEK293 nuclear extracts: H4K5; type: cell-based, human
Description: as §1, §2, §3

human HDAC2 = target: T2, human HDAC2 (Homo sapiens, UniProt Q92769); test: Fluorometric HDAC activity assay, purified human HDAC2; type: biochemical; conditions: purified human HDAC2, n=4-5
T2 construct: purchased BPS Bioscience 50062
Description: as §4

T2 sequence (Q92769 whole entry): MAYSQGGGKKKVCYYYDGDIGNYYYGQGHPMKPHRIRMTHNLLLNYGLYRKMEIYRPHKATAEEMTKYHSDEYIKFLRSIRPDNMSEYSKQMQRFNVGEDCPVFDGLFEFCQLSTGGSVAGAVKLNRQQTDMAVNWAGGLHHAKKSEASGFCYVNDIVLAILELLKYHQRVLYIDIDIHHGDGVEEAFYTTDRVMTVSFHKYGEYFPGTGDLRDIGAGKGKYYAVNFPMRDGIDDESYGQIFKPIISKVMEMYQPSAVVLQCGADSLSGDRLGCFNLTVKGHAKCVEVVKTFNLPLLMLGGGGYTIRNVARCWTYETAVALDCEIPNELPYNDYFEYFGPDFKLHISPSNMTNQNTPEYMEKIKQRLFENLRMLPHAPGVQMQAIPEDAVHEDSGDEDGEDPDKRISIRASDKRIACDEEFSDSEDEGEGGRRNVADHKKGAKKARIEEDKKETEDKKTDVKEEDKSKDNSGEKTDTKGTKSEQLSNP

CC(=O)C(C)=O [diacetyl, 2,3-Butanedione]
H3K14 acetylation level ([1]; 1 mM, 2 or 6 hours): did not alter | H3K14 acetylation level ([1]; 10 mM, 2 hours): not affected | H3K14 acetylation level ([1]; 10 mM, 6 hours): unaffected | pIC50 (human HDAC8): 1.94 | H4K5 acetylation level ([2]; 1 mM, 2 or 6 hours): did not alter | H4K5 acetylation level ([2]; 10 mM, 2 hours): not affected | H4K5 acetylation level ([2]; 10 mM, 6 hours): unaffected | pIC50 (human HDAC2): 1.95
